Test results from patent publication US6476019B1, “Spirocyclic ligands for sigma receptors, and libraries and methods of use thereof” (Sepracor Inc., priority 1999, dated 2002).
≈ marks a conversion by molar mass, not a printed value. Read-outs that look alike come from different tables or passages of the source.

Assays:
[1] = target: T1, sigma-1 receptor (guinea pig brain) (Cavia porcellus, UniProt Q60492); test: Antagonism of haloperidol binding to guinea pig sigma-1 receptors; conditions: sigma-1, guinea pig brain; for % Inhibition: test concentration not given
T1 construct: from tissue; host or cells: guinea pig brain
T1 sequence (Q60492 whole entry): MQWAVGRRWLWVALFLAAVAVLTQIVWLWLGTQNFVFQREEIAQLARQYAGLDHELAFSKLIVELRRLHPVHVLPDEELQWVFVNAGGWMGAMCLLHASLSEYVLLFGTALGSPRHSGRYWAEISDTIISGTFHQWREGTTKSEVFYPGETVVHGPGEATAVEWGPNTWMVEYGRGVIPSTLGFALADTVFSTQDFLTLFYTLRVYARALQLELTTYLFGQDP

Permeability = type: in vitro ADME; conditions: not told; read-out: Permeability PupperX10^6 cm/s
CYP1A2 [2] = target: T2, CYP1A2 (Homo sapiens, UniProt P05177)
T2 sequence (P05177 1-516): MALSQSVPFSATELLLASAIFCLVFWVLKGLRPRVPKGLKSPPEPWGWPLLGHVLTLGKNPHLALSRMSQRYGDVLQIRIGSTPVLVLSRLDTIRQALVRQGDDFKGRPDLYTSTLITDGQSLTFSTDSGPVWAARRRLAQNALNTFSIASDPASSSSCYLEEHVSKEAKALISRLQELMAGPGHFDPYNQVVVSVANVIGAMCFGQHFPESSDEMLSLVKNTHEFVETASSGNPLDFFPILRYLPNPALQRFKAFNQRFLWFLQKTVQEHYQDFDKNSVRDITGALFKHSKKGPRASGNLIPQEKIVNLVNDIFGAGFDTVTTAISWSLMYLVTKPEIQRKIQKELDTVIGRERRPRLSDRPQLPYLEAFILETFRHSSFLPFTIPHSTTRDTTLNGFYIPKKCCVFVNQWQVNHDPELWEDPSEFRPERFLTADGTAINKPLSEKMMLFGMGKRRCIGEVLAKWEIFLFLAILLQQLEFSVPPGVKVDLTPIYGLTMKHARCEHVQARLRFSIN

GSH Level [3] = test: Safety Assessment: GSH Level
RedOx State [4] = test: Safety Assessment: RedOx State
DNA Synthesis = test: Safety Assessment: DNA Synthesis
Cell Viability [5] = test: Safety Assessment: Cell Viability
Protein Synthesis = test: Safety Assessment: Protein Synthesis
Membrane Integrity [6] = test: Safety Assessment: Membrane Integrity
Caspase-3 [7] = test: Safety Assessment: Caspase-3 Induction
CYP2C9 [8] = target: T3, CYP2C9 (Homo sapiens, UniProt P11712); test: In Vitro Metabolism (isozymes of P450) CYP2C9
T3 sequence (P11712 whole entry): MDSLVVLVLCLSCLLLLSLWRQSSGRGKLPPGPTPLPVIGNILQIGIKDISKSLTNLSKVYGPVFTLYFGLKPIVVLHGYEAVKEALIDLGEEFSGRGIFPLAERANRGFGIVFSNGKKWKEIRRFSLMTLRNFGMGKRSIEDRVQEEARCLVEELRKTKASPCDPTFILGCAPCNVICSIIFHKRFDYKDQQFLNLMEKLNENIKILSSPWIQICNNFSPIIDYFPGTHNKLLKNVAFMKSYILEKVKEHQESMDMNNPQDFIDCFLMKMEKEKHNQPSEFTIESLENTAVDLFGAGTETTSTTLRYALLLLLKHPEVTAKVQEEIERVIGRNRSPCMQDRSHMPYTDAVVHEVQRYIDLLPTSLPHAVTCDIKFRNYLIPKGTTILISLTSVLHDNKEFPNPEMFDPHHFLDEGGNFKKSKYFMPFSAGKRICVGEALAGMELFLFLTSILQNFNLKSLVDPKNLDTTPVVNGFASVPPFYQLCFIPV

CYP2D6 [9] = target: T4, CYP2D6 (Homo sapiens, UniProt P10635); test: In Vitro Metabolism (isozymes of P450) CYP2D6
T4 sequence (P10635 whole entry): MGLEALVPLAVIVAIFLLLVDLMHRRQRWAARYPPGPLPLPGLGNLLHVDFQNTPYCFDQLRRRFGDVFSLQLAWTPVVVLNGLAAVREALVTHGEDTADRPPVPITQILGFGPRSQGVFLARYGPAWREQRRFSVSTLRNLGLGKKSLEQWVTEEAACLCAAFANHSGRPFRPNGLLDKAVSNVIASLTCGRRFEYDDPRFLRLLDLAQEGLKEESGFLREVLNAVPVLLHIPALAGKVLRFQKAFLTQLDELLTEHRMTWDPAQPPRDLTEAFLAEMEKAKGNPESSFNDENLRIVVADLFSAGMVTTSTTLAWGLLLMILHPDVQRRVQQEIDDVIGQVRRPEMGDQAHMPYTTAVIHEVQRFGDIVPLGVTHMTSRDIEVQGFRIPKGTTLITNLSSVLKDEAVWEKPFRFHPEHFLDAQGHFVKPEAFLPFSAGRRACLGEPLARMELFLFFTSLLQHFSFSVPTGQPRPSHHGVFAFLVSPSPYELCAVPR

CYP3A4 [10] = target: T5, CYP3A4 (Homo sapiens, UniProt P08684); test: In Vitro Metabolism (isozymes of P450) CYP3A4
T5 sequence (P08684 whole entry): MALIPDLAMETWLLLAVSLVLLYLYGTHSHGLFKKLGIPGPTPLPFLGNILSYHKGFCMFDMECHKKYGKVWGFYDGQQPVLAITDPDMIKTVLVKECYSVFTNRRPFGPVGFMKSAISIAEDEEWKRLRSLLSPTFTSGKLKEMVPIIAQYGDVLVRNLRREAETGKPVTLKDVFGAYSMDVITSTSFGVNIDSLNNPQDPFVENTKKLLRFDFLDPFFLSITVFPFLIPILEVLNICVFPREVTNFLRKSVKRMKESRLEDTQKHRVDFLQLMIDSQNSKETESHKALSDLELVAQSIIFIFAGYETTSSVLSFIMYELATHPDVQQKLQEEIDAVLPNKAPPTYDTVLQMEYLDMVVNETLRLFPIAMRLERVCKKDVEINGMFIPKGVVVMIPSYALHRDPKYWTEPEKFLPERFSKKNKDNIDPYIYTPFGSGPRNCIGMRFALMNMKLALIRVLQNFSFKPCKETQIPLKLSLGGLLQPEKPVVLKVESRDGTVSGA

CYP2C19 [11] = target: T6, CYP2C19 (Homo sapiens, UniProt P33261); test: In Vitro Metabolism (isozymes of P450) CYP2C19
T6 sequence (P33261 whole entry): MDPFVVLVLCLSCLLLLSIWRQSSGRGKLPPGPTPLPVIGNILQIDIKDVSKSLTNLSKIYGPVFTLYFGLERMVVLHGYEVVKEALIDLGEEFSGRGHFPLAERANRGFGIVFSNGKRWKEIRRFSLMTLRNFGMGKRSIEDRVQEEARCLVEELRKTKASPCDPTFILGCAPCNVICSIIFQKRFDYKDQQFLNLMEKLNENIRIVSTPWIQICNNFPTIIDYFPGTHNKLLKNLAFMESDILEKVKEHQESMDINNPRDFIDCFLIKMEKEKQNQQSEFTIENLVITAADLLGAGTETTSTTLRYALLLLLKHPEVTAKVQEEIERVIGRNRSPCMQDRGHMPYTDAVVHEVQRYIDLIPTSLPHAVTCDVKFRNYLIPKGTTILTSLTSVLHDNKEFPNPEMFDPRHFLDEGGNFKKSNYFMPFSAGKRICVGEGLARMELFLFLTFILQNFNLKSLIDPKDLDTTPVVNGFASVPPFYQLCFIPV

[12] = pH 7.5
CYP2C9 [13] = target: T3, CYP2C9
CYP2D6 [14] = target: T4, CYP2D6
CYP2C19 [15] = target: T6, CYP2C19
CYP3A4 [16] = target: T5, CYP3A4
GSH Level [17] = test system: GSH Level
Cell Viability [18] = test system: Cell Viability
Caspase-3 [19] = test system: Caspase-3
Membrane Integrity [20] = test system: Membrane Integrity
RedOx State [21] = test system: RedOx State
CYP1A2 [22] = target: T2, CYP1A2; test: In Vitro Metabolism (isozymes of P450) CYP1A2

O=C1CCC2(CCN(Cc3nc4ccccc4[nH]3)CC2)Nc2ccccc21 [Compound 21, 1′-(2-methylbenzimidazole)-3,4-dih drospiro[5H-1-benzazepine-2(1H)-4′-piperidin]-5-one]
IC50 [1]: < 1000 nM | % Inhibition [1]: >50% | Papp (Permeability): 1.95 ×10⁻⁶ cm/s | CYP1A2 (CYP1A2 [2]): 20 % inhibition | Log D7.5 (Log D7.5): 1.22 | solubility (Solubility): 210 µM (≈ 75.6 µg/mL) | fraction unbound (Protein Binding): 0.01 | Metabolic Stability (% parent remaining) (Metabolic Stability): 17 % parent remaining | GSH Level (% Control) (GSH Level [3]): <10 % Control | RedOx State (RedOx State [4]): 33 % inhibition | DNA Synthesis (DNA Synthesis): 29 % inhibition | Cell Viability (Cell Viability [5]): <10 % inhibition | Protein Synthesis (Protein Synthesis): 14 % inhibition | Membrane Integrity (Membrane Integrity [6]): <10 % inhibition | Caspase-3 Induction % Induction (Caspase-3 [7]): <10 % Induction | CYP2C9 (CYP2C9 [8]): 19 % inhibition | CYP2D6 (CYP2D6 [9]): 100 % inhibition | CYP3A4 (CYP3A4 [10]): 69 % inhibition | CYP2C19 (CYP2C19 [11]): 20 % inhibition

O=C1CCC2(CCNCC2)Nc2ccccc21 [Compound 11, 3,4-Dihydrospiro[5H-1-benzazepine-2(1H), 4′-piperidin]-5-one]
IC50 [1]: > 1000 nM | % Inhibition [1]: <50% | Papp (Permeability): 4.7 ×10⁻⁶ cm/s | Log D7.5 [12]: 0.48 | CYP2C9 (CYP2C9 [13]): <10 % inhibition | CYP2D6 (CYP2D6 [14]): 15 % inhibition | CYP2C19 (CYP2C19 [15]): <10 % inhibition | CYP3A4 (CYP3A4 [16]): <10 % inhibition | GSH Level (% Control) (GSH Level [17]): <10 % Control | Cell Viability (Cell Viability [18]): <10 % inhibition | Caspase-3 Induction % Induction (Caspase-3 [19]): <10 % Induction | Membrane Integrity (Membrane Integrity [20]): <10 % inhibition | RedOx State (RedOx State [21]): <10 % inhibition | solubility (physchem): 202 µM (≈ 46.5 µg/mL) | fraction unbound (in vitro): 0.3 | DNA Synthesis (DNA Synthesis): <10 % inhibition | Protein Synthesis (Protein Synthesis): 42 % inhibition | CYP1A2 (CYP1A2 [22]): <10 % inhibition
